Results taken from patent US20190134145A1, “METHOD FOR TREATING COGNITIVE DYSFUNCTION” (ARIZONA BOARD OF REGENTS ON BEHALF OF THE UNIVERSITY OF …, priority 2013, published 2019).

Tests used:
Paraventricular neurons = assay: Reactive oxygen species production (DHE/ethidium fluorescence) in neurons challenged with aldosterone; type: cell-based, SD rats; details: mean±SE
Experimental: Paraventricular neurons were isolated from 22 day old female SD rats, dissociated and cultured on round coverslips and maintained in HBSS media for at least 48 hours prior to visualization by confocal microscopy. All cells were pre-incubated in 10 nM ALDO for 48 hours and then 1.0 μM Ang-(1-7) or 1.0 μM Ang-(1-7)+10.0 μM […] for 2 hours prior to testing with acute 1.0 μM Aldo. To measure ROS, changes in the ethidium fluorescence were measured which is directly proportional to the oxidation of dihydroethidium (DHE) by ROS. The cells were loaded with DHE (20 μM) added to the cell culture media for 1 h and then placed in a chamber for microscopic visualization of fluorescence. One-way ANOVAs for the experimental groups response to acute Aldo was determined. After establishing a significant ANOVA, post-hoc analyses were performed with Tukey multiple comparison tests between pairs of mean change scores. All data are expressed as means±SE. Statistical significance was set at P<0.05. Perfusion with 1.0 μM ALDO increased ROS (D=113.4+28%) in the PVN neurons. […] Pre-incubation in Ang-(1-7)+[…], restored the ALDO increase in ROS (Delta=105.9+9%). Change in ROS production was standardized relative to control state prior to ALDO treatment during ACSF incubation. ANOVA followed by Tukey's post hoc test was used for statistical comparisons between control and ALDO treatment. […]

CHF mice [1] = assay: Ejection fraction by echocardiography in CHF mice; type: in vivo; details: systemic treatment 50 mcg/kg/hr subcutaneously
Experimental: Myocardial infarction and subsequent CHF was induced by ligation of the left coronary artery. By week 4 and week 8 post MI, CHF mice (n=15) had approximately 50 and 70% decline in ejection fraction as measured by echocardiography. For the object recognition SOR test at 8 weeks post MI, discrimination ratios were calculated from the time spent exploring the novel versus familiar object during the test phase. […] At 8 weeks post MI, a subgroup of CHF mice (n=6) and controls (n=4) were given 50 mcg/kg/hr Angiotensin (1-7) or saline subcutaneously for 4 weeks and then cognitive function was retested.
(§1) In addition, the invention provides a preclinical animal model of cardiovascular disease and congestive heart failure induced cognitive dysfunction. A total of 26, male C57B1/6J mice were randomly assigned to the control group or cardiovascular disease and congestive heart failure group. Myocardial infarction was induced by ligation of the left coronary artery. By week 4 and week 8 post MI, cardiovascular disease and congestive heart failure mice (n=15) had approximately 50 and 70% decline in ejection fraction as measured by echocardiography. Mice were tested for changes in spatial learning memory via the Morris water task and object recognition via the standard spontaneous object recognition (SOR) task at 4 and 8 weeks post MI. […]

CHF mice [2] = assay: Spontaneous (novel) object recognition (SOR) test in mice with congestive heart failure after myocardial infarction; type: in vivo; details: CHF mice (n=6), 50 mcg/kg/hr subcutaneously from 8 weeks post MI, after 3 weeks of treatment; controls +0.25±0.2, CHF+saline −0.21±0.1
Experimental: Mice were 12 weeks post MI or sham surgery. Six mice were MI+Ang(1-7); three mice were MI+saline; and four mice were Sham+Ang (1-7). Alzet pumps with either Ang(1-7) or saline were implanted sq 3 weeks prior to NOR test. Novel object recognition test was performed 3 weeks post pump implant. Data shown are 1st 2 min of “test phase” DRatio=(t novel−t familiar)/(t novel+t familiar). A positive score indicates more time spent with the novel object, a negative score indicates more time spent with the familiar object, and a zero score indicates a null preference. *=p<0.05, #=p<0.05. ANOVA+posthoc Turkey test.
Myocardial infarction and subsequent CHF was induced by ligation of the left coronary artery. By week 4 and week 8 post MI, CHF mice (n=15) had approximately 50 and 70% decline in ejection fraction as measured by echocardiography. For the object recognition SOR test at 8 weeks post MI, discrimination ratios were calculated from the time spent exploring the novel versus familiar object during the test phase. […]
In addition, the invention provides a preclinical animal model of cardiovascular disease and congestive heart failure induced cognitive dysfunction. […] By week 4 and week 8 post MI, cardiovascular disease and congestive heart failure mice (n=15) had approximately 50 and 70% decline in ejection fraction as measured by echocardiography. […]

CHF mice [3] = assay: Morris water maze task (spatial memory) in mice with congestive heart failure after myocardial infarction; type: in vivo; details: 50 mcg/kg/hr subcutaneously for 4 weeks from 8 weeks post MI, first day of testing
Experimental: Prior to MI, the controls and CHF mice groups performed similarly on the Morris water task. Myocardial infarction and subsequent CHF was induced by ligation of the left coronary artery. By week 4 and week 8 post MI, CHF mice had approximately 50 and 70% decline in ejection fraction as measured by echocardiography. […] Animals were tested over 4 days with 6 spatial trials per day.
as §1, with “MI. At 8 weeks post MI, a subgroup of cardiovascular disease and congestive heart failure mice (n=6) and the control mice (n=4) were given 50 mcg/kg/hr Angiotensin (1-7) or saline subcutaneously for 4 weeks and then cognitive function was retested.” for “MI.”

| Compound | Change in ROS (D) relative to control state prior to ALDO treatment (Paraventricular neurons; PVN neurons, perfusion with 1.0 μM ALDO, no Ang-(1-7) pre-incubation) | Ejection fraction (CHF mice [1]) | SOR discrimination ratio (CHF mice [2]) | Performance in Morris water maze task after treatment (CHF mice [3]) | Change in ROS (D) on ALDO, relative to control state prior to ALDO treatment (Paraventricular neurons; PVN neurons pre-incubated 2 hours in 1.0 μM Ang-(1-7), then acute 1.0 μM ALDO) |
| --- | --- | --- | --- | --- | --- |
| C[C@]12CCC(=O)C=C1CC[C@@H]1[C@@H]2[C@@H](O)C[C@]2(C=O)[C@@H](C(=O)CO)CC[C@@H]12 [ALDO, Aldosterone, reference compound] | 113.4+28% | – | – | – | – |
| angiotensin-(1-7) (DRVYIHP; Angiotensin 1-7; UniProt P01019 25-31, looked up) [Ang-(1-7), endogenous peptide derived from Angiotensin II via ACE2] | – | not significantly impacted | +0.43±0.1 | significant improvement on object recognition memory on the first day of testing | 6.4+27% |
